# Test results as given in the supplement of paper PMC10307832.
# Key:
# Test in all cases: relative viability (nuclei count vs DMSO), 5 days (fraction); higher = more cells survive
# NCI-H2126 = test system: NCI-H2126
# Outline: (§1)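 Relative viability equals treated-well nuclei counts divided by vehicle-well nuclei counts. Counts came from 4× images of lung cancer cell lines grown in 1536-well plates for 5 days after pin-tool dosing on the day after seeding. Dosing used one drug alone or a fixed anchor-drug dose plus five library-drug doses (not always all listed) in √10 steps, and values are medians of duplicate plates.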
# SW 1573 = test system: SW 1573
# Outline: as §1
# NCI-H2085 = test system: NCI-H2085
# Outline: as §1
# NCI-H1993 = test system: NCI-H1993
# Outline: as §1
# LC-2-ad = test system: LC-2-ad
# Outline: as §1
# LU99A = test system: LU99A
# Outline: as §1
# ABC-1 = test system: ABC-1
# Outline: as §1
# NCI-H2023 = test system: NCI-H2023
# Outline: as §1
# NCI-H838 = test system: NCI-H838
# Outline: as §1
# EPLC-272H = test system: EPLC-272H
# Outline: as §1
# UMC-11 = test system: UMC-11
# Outline: as §1
# HCC-15 = test system: HCC-15
# Outline: as §1
# HARA = test system: HARA
# Outline: as §1
# PC-14 = test system: PC-14
# Outline: as §1
# COR-L23 = test system: COR-L23
# Outline: as §1
# NCI-H1651 = test system: NCI-H1651
# Outline: as §1
# NCI-H650 = test system: NCI-H650
# Outline: as §1
# NCI-H1355 = test system: NCI-H1355
# Outline: as §1
# NCI-H358 = test system: NCI-H358
# Outline: as §1
# NCI-H1915 = test system: NCI-H1915
# Outline: as §1
# NCI-H2347 = test system: NCI-H2347
# Outline: as §1
# HCC-44 = test system: HCC-44
# Outline: as §1
# HOP-62 = test system: HOP-62
# Outline: as §1
compound,measurement,setting,value
O=c1cc(N2CCOCC2)oc2c(-c3cccc4c3sc3ccccc34)cccc12 + CS(=O)(=O)N1CCN(Cc2cc3nc(-c4cccc5[nH]ncc45)nc(N4CCOCC4)c3s2)CC1 [Pictilisib] (partner 1 µM),relative viability,NCI-H2126; first compound 0.01 µM,0.471
same,relative viability,NCI-H2126; first compound 0.03162 µM,0.449
same,relative viability,NCI-H2126; first compound 0.1 µM,0.529
same,relative viability,NCI-H2126; first compound 0.3162 µM,0.517
same,relative viability,NCI-H2126; first compound 1 µM,0.479
same,relative viability,SW 1573; first compound 0.01 µM,0.549
same,relative viability,SW 1573; first compound 0.03162 µM,0.489
same,relative viability,SW 1573; first compound 0.1 µM,0.48
same,relative viability,SW 1573; first compound 0.3162 µM,0.452
same,relative viability,SW 1573; first compound 1 µM,0.471
same,relative viability,NCI-H2085; first compound 0.01 µM,0.469
same,relative viability,NCI-H2085; first compound 0.03162 µM,0.467
same,relative viability,NCI-H2085; first compound 0.1 µM,0.553
same,relative viability,NCI-H2085; first compound 0.3162 µM,0.464
same,relative viability,NCI-H2085; first compound 1 µM,0.405
same,relative viability,NCI-H1993; first compound 0.01 µM,0.937
same,relative viability,NCI-H1993; first compound 0.03162 µM,0.945
same,relative viability,NCI-H1993; first compound 0.1 µM,0.812
same,relative viability,NCI-H1993; first compound 0.3162 µM,0.759
same,relative viability,NCI-H1993; first compound 1 µM,0.799
same,relative viability,LC-2-ad; first compound 0.01 µM,0.39
same,relative viability,LC-2-ad; first compound 0.1 µM,0.578
same,relative viability,LC-2-ad; first compound 0.3162 µM,0.456
same,relative viability,LC-2-ad; first compound 1 µM,0.526
same,relative viability,LU99A; first compound 0.01 µM,0.384
same,relative viability,LU99A; first compound 0.03162 µM,0.3
same,relative viability,LU99A; first compound 0.1 µM,0.333
same,relative viability,LU99A; first compound 0.3162 µM,0.367
same,relative viability,LU99A; first compound 1 µM,0.343
same,relative viability,ABC-1; first compound 0.01 µM,0.698
same,relative viability,ABC-1; first compound 0.03162 µM,0.834
same,relative viability,ABC-1; first compound 0.1 µM,0.745
same,relative viability,ABC-1; first compound 0.3162 µM,0.888
same,relative viability,ABC-1; first compound 1 µM,0.755
same,relative viability,NCI-H2023; first compound 0.01 µM,0.306
same,relative viability,NCI-H2023; first compound 0.03162 µM,0.262
same,relative viability,NCI-H2023; first compound 0.1 µM,0.266
same,relative viability,NCI-H2023; first compound 0.3162 µM,0.275
same,relative viability,NCI-H2023; first compound 1 µM,0.245
same,relative viability,NCI-H838; first compound 0.01 µM,0.427
same,relative viability,NCI-H838; first compound 0.03162 µM,0.389
same,relative viability,NCI-H838; first compound 0.1 µM,0.434
same,relative viability,NCI-H838; first compound 0.3162 µM,0.472
same,relative viability,NCI-H838; first compound 1 µM,0.388
same,relative viability,EPLC-272H; first compound 0.01 µM,0.108
same,relative viability,EPLC-272H; first compound 0.03162 µM,0.242
same,relative viability,EPLC-272H; first compound 0.3162 µM,0.374
same,relative viability,EPLC-272H; first compound 1 µM,0.31
same,relative viability,UMC-11; first compound 0.01 µM,0.812
same,relative viability,UMC-11; first compound 0.03162 µM,0.825
same,relative viability,UMC-11; first compound 0.1 µM,0.773
same,relative viability,UMC-11; first compound 0.3162 µM,0.819
same,relative viability,UMC-11; first compound 1 µM,0.796
same,relative viability,HCC-15; first compound 0.01 µM,0.66
same,relative viability,HCC-15; first compound 0.03162 µM,0.74
same,relative viability,HCC-15; first compound 0.1 µM,0.939
same,relative viability,HCC-15; first compound 0.3162 µM,0.774
same,relative viability,HCC-15; first compound 1 µM,0.714
same,relative viability,HARA; first compound 0.01 µM,0.315
same,relative viability,HARA; first compound 0.03162 µM,0.381
same,relative viability,HARA; first compound 0.1 µM,0.435
same,relative viability,HARA; first compound 0.3162 µM,0.362
same,relative viability,HARA; first compound 1 µM,0.457
same,relative viability,PC-14; first compound 0.01 µM,0.555
same,relative viability,PC-14; first compound 0.03162 µM,0.612
same,relative viability,PC-14; first compound 0.1 µM,0.553
same,relative viability,PC-14; first compound 0.3162 µM,0.638
same,relative viability,PC-14; first compound 1 µM,0.589
same,relative viability,COR-L23; first compound 0.01 µM,0.765
same,relative viability,COR-L23; first compound 0.03162 µM,0.855
same,relative viability,COR-L23; first compound 0.1 µM,0.846
same,relative viability,COR-L23; first compound 0.3162 µM,0.757
same,relative viability,COR-L23; first compound 1 µM,0.778
same,relative viability,NCI-H1651; first compound 0.01 µM,0.451
same,relative viability,NCI-H1651; first compound 0.03162 µM,0.642
same,relative viability,NCI-H1651; first compound 0.1 µM,0.636
same,relative viability,NCI-H1651; first compound 0.3162 µM,0.615
same,relative viability,NCI-H1651; first compound 1 µM,0.56
same,relative viability,NCI-H650; first compound 0.01 µM,0.907
same,relative viability,NCI-H650; first compound 0.03162 µM,1
same,relative viability,NCI-H650; first compound 0.3162 µM,0.896
same,relative viability,NCI-H650; first compound 1 µM,1.04
same,relative viability,NCI-H1355; first compound 0.01 µM,0.486
same,relative viability,NCI-H1355; first compound 0.03162 µM,0.502
same,relative viability,NCI-H1355; first compound 0.3162 µM,0.429
same,relative viability,NCI-H1355; first compound 1 µM,0.419
same,relative viability,NCI-H358; first compound 0.01 µM,0.339
same,relative viability,NCI-H358; first compound 0.03162 µM,0.353
same,relative viability,NCI-H358; first compound 0.1 µM,0.338
same,relative viability,NCI-H358; first compound 0.3162 µM,0.307
same,relative viability,NCI-H358; first compound 1 µM,0.318
same,relative viability,NCI-H1915; first compound 0.01 µM,0.953
same,relative viability,NCI-H1915; first compound 0.03162 µM,0.975
same,relative viability,NCI-H1915; first compound 0.1 µM,1.08
same,relative viability,NCI-H1915; first compound 0.3162 µM,0.99
same,relative viability,NCI-H1915; first compound 1 µM,0.909
same,relative viability,NCI-H2347; first compound 0.01 µM,0.671
same,relative viability,NCI-H2347; first compound 0.03162 µM,0.442
same,relative viability,NCI-H2347; first compound 0.1 µM,0.502
same,relative viability,NCI-H2347; first compound 0.3162 µM,0.802
same,relative viability,NCI-H2347; first compound 1 µM,0.468
same,relative viability,HCC-44; first compound 0.01 µM,0.638
same,relative viability,HCC-44; first compound 0.03162 µM,0.659
same,relative viability,HCC-44; first compound 0.1 µM,1.87
same,relative viability,HCC-44; first compound 0.3162 µM,0.543
same,relative viability,HCC-44; first compound 1 µM,0.549
same,relative viability,HOP-62; first compound 0.01 µM,0.755
same,relative viability,HOP-62; first compound 0.03162 µM,0.696
same,relative viability,HOP-62; first compound 0.1 µM,0.594
same,relative viability,HOP-62; first compound 0.3162 µM,0.649
same,relative viability,HOP-62; first compound 1 µM,0.697
